Patent publication US10316039B2, “P2X3 and/or P2X2/3 compounds and methods” (Asana Biosciences, LLC, priority 2013, dated 2019)

System: acetic acid-induced writhing (visceral pain)
Experiment: Acetic acid induced writhing test
Type: in vivo
Conditions: mouse, 20, 40 and 60 mg/kg oral gavage, 30 min before i.p. acetic acid, counted 15 min
Method: FIG. 4 illustrates the antinociceptive effects of the compound of example 22 in a mouse model of visceral pain. The compound of example 22 was administered by oral gavage at 3 dose levels (20, 40 and 60 mg/kg) 30 min prior to an intraperitoneal injection of a dilute acetic acid solution. When injected into the abdominal cavity, acetic acid induces a distinctive stretching response in the abdomen and at least one hind limb that is assumed to reflect a response to visceral pain. […] Statistical significance is indicated with respect to the vehicle control group and was performed using a one-way ANOVA followed by Dunnett's multiple comparison test. Swiss albino mice of 30-40 g were included in the study. The mice were given an intraperitoneal injection of 0.7% v/v acetic acid solution at an injection volume of 10 mL/kg, 30 min after oral administration of vehicle or test article control. Test articles were administered, typically, at doses between 20 and 60 mg/kg. The mice were placed individually into glass chambers. The number of writhes produced in these animals was counted for 15 min following acetic acid administration. For scoring purposes writhing was indicated by stretching of the abdomen with simultaneous stretching of at least one hind limb. See, e.g., FIG. 4. Statistical analysis was done with One way ANOVA followed by Dunnett's multiple comparison tests. […]

**Q.** How did the “pain responses (writhes) after acetic acid” value turn out when `CCc1cnnn1-c1cc(C(=O)NCc2ccc(C)nc2)cn2c(-c3ccc(C)s3)cnc12` [Example 22] was run?
**A.** clear dose-related reduction in the pain responses
